Results: PubChem BioAssay (NCI)
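Grown in 96-well plates, cells were treated for 48 hours with each compound at five concentrations. Insufficient inhibition: endpoint recorded as highest concentration tested. GI50 is the concentration that inhibits growth by half. TGI denotes the concentration required for complete inhibition of growth.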

How the values were obtained:
Assay in all cases: NCI anticancer screen, dose series, 48 h
SR leukemia = tested on: SR leukemia
SF-295 CNS = tested on: SF-295 CNS
NCI-H460 lung = tested on: NCI-H460 lung
EKVX NSCLC = tested on: EKVX NSCLC
SF-539 CNS = tested on: SF-539 CNS
786-0 renal = tested on: 786-0 renal
SW-620 colon = tested on: SW-620 colon
NCI-H522 lung = tested on: NCI-H522 lung
NCI/ADR-RES ovarian = tested on: NCI/ADR-RES ovarian
HCC-2998 colon = tested on: HCC-2998 colon

Structure (SMILES)	TGI (SR leukemia) [µM]	TGI (SF-295 CNS) [µM]	TGI (NCI-H460 lung) [µM]	TGI (EKVX NSCLC) [µM]	TGI (SF-539 CNS) [µM]	TGI (786-0 renal) [µM]	TGI (SW-620 colon) [µM]	TGI (NCI-H522 lung) [µM]	GI50 (SF-295 CNS) [µM]	GI50 (NCI-H460 lung) [µM]	GI50 (NCI/ADR-RES ovarian) [µM]	TGI (NCI/ADR-RES ovarian) [µM]	GI50 (EKVX NSCLC) [µM]	GI50 (SF-539 CNS) [µM]	GI50 (HCC-2998 colon) [µM]	TGI (HCC-2998 colon) [µM]	GI50 (786-0 renal) [µM]	GI50 (SW-620 colon) [µM]	GI50 (NCI-H522 lung) [µM]	GI50 (SR leukemia) [µM]
CC(=O)OC1(Sc2ccccc2)CC2[C@H]3COC(C)(C)O[C@H]3CC[C@@]2(C)CC1=O (some centres not stated)	45.4	> 100	> 100	> 100	95.9	> 100	> 100	79.8	–	–	–	–	–	–	–	–	–	–	–	–
Cc1nc2ccccc2c(=O)n1/N=C(\N=Nc1ccc(Cl)cc1)c1cccc(-c2ccco2)c1	–	94.6	> 100	> 100	98.4	> 100	> 100	54.4	–	–	–	–	–	–	–	–	–	–	–	–
COc1ccc(-n2cc(-c3cc(OC)c(OC)c(OC)c3)nc2SCc2cccc(C#N)c2)cc1OC	–	> 100	> 100	> 100	> 100	> 100	> 100	> 100	> 100	> 100	> 100	> 100	> 100	90.3	> 100	> 100	> 100	34	90	–
S=C1SCC2CCCN12 (configuration not stated)	> 100	> 100	> 100	–	> 100	> 100	> 100	> 100	–	–	–	–	–	–	–	> 100	–	–	–	–
Cc1c(C)c2cc3c(=O)c(CCl)coc3c(C)c2oc1=O	–	> 100	> 100	> 100	> 100	> 100	> 100	> 100	–	–	–	–	–	–	–	> 100	–	–	–	–
N.N.N.N.N#N.N#N.[Cl-].[Os+6]	> 100	> 100	> 100	> 100	> 100	> 100	> 100	> 100	> 100	> 100	–	–	> 100	> 100	> 100	> 100	> 100	> 100	> 100	> 100
CC1(Cl)C(=O)NC(=O)N([C@H]2C[C@H](O)[C@@H](CO)O2)C1N=[N+]=[N-] (some centres not stated)	> 100	> 100	> 100	> 100	> 100	> 100	> 100	> 100	–	–	–	–	–	–	–	> 100	–	–	–	–
COc1ccc2c(c1OC)C(=O)C2	> 100	> 100	> 100	> 100	–	> 100	> 100	> 100	–	–	–	–	–	–	–	–	–	–	–	–
COc1ccccc1/C=C1\C(=O)N(C(=O)Cc2ccccc2)N=C1C	> 100	> 100	> 100	> 100	> 100	> 100	> 100	> 100	–	–	–	–	–	–	–	> 100	–	–	–	–
CC1=CC(=O)NP(=O)(Oc2ccc(Cl)cc2)N1 (configuration not stated)	> 100	> 100	> 100	> 100	> 100	> 100	> 100	> 100	–	–	–	–	–	–	–	–	–	–	–	–
CC(C)(C)C1=CC(=N/N=c2\scc(-c3ccccc3)n2Cc2ccccc2)C=C(C(C)(C)C)C1=O	> 100	> 100	> 100	> 100	> 100	> 100	> 100	–	–	–	–	–	–	–	–	> 100	–	–	–	–
N#CN1CC[C@@H]2CC3(CCC2C1)OCCO3 (some centres not stated)	> 100	> 100	> 100	> 100	> 100	> 100	> 100	–	–	–	–	–	–	–	–	> 100	–	–	–	–
COCN1COCN(C)C1=O	–	> 100	> 100	> 100	> 100	> 100	> 100	–	–	–	–	–	–	–	–	> 100	–	–	–	–
O=C1NC(c2ccccc2)(c2ccccc2)C(=O)N1CCCCCCN1C(=O)NC(c2ccccc2)(c2ccccc2)C1=O	–	81.3	> 100	> 100	81.3	49.3	> 100	84.2	–	–	–	–	–	–	–	> 100	–	–	–	–
Cn1cc(-c2ccc3c4ccccc4n(C)c3c2)c2ccccc21	–	> 100	> 100	> 100	> 100	> 100	> 100	> 100	–	–	–	–	–	–	–	> 100	–	–	–	–
O=C(c1ccc(Cl)cc1Cl)N1CCN(C(=O)c2ccc(Cl)cc2Cl)C1=S	–	61.7	> 100	48.4	49.6	42.3	98.2	38.1	22.9	35.4	24.8	74.3	20.5	27.2	22	44.4	18.6	28.2	18.2	–

Structure (SMILES)	TGI (SR leukemia) [µM]	TGI (SF-295 CNS) [µM]	TGI (NCI-H460 lung) [µM]	TGI (EKVX NSCLC) [µM]	TGI (SF-539 CNS) [µM]	TGI (786-0 renal) [µM]	TGI (SW-620 colon) [µM]	TGI (NCI-H522 lung) [µM]	GI50 (SF-295 CNS) [µM]	GI50 (NCI-H460 lung) [µM]	GI50 (NCI/ADR-RES ovarian) [µM]	TGI (NCI/ADR-RES ovarian) [µM]	GI50 (EKVX NSCLC) [µM]	GI50 (SF-539 CNS) [µM]	GI50 (HCC-2998 colon) [µM]	TGI (HCC-2998 colon) [µM]	GI50 (786-0 renal) [µM]	GI50 (SW-620 colon) [µM]	GI50 (NCI-H522 lung) [µM]	GI50 (SR leukemia) [µM]
COc1ccc(C2=Nn3c(nnc3-c3ccc(F)c(Cl)c3)SC2)cc1	–	> 100	> 100	> 100	> 100	> 100	> 100	> 100	> 100	> 100	> 100	> 100	> 100	> 100	> 100	> 100	> 100	> 100	> 100	–
COc1cc(C[C@H]2COC(=O)[C@]2(O)Cc2ccc(OCc3ccccc3)c(OC)c2)ccc1OCc1ccccc1	–	> 100	> 100	> 100	> 100	> 100	> 100	> 100	18.9	9.77	5.18	> 100	24.2	37.6	26.5	> 100	85.4	> 100	65.2	–
O=C(n1c2ccccc2c2n[nH]c(=S)nc21)C(F)(F)F	–	> 100	> 100	> 100	> 100	> 100	> 100	> 100	–	–	–	–	–	–	–	> 100	–	–	–	–
Cc1cccc(NC(=O)c2c(N)[n+]([O-])c3ccccc3[n+]2[O-])c1	> 100	23.3	28.1	31.3	16.4	17.9	21.4	20	–	–	–	–	–	–	–	–	–	–	–	–
Cc1cc(NS(=O)(=O)c2ccc(NC(=O)c3ccc(Cl)c4c(Nc5ccc(S(=O)(=O)Nc6cc(C)on6)cc5)c5ccccc5nc34)cc2)no1	–	57.4	53.9	64.9	32.3	32.2	66.1	33.2	–	–	–	–	–	–	–	–	–	–	–	–
COc1ccc(-c2cn(C)c3c2-n2cccc2C3=O)cc1O	–	21.3	20	51.5	16.5	30.7	> 100	40.8	5.22	3.06	3.39	25.3	14.6	1.76	2.48	6.46	9.86	6.9	10.1	–
CCOC(=O)c1ccc(N=Cc2ccc(N(CCC#N)S(=O)(=O)c3ccccc3)cc2C)cc1	–	> 100	–	> 100	> 100	> 100	> 100	> 100	–	–	–	–	–	–	–	58.1	–	–	–	–
C=CCCC(O)c1cc(C)c(O)c(C)c1 (configuration not stated)	–	> 100	> 100	> 100	> 100	> 100	> 100	> 100	–	–	–	–	–	–	–	> 100	–	–	–	–
CCCCC[C@@H]1CCCC2NC(CCCCCO[Si](c3ccccc3)(c3ccccc3)C(C)(C)C)CCC21 (some centres not stated)	–	31.3	31.7	34.3	29.8	33.2	31.6	31.6	–	–	–	–	–	–	–	25.1	–	–	–	–
O=C(NCCCN1CCN(CCCNC(=O)c2cccc3ccccc23)CC1)c1cccc2ccccc12	–	> 100	> 100	> 100	> 100	> 100	> 100	–	–	–	–	–	–	–	–	> 100	–	–	–	–
CC(C)(C)c1cc(C2c3cc4c(cc3OC(O)(CO)C2C(=O)O)OCO4)cc(C(C)(C)C)c1O (configuration not stated) (tested in a mixture with another compound)	–	30.3	33.3	50.5	25.8	33.8	33.4	–	–	–	–	–	–	–	–	–	–	–	–	–
Cn1c(=O)nc2n(-c3ccc(Br)cc3)c3ccccc3nc-2c1=O	–	17	11.9	7.3	19.6	22.3	6.57	18.4	–	–	–	–	–	–	–	10.8	–	–	–	–
O=NNc1ccc(-c2ccccc2)cn1	–	62.2	42.9	> 51.2	80.8	> 39.2	> 77	49.3	–	–	–	> 43.1	–	–	–	> 76.4	–	–	–	–
O=C(c1ccccc1)c1nc2c(Cl)ccc(Cl)c2cc1C(Br)Br	13.1	2.6	–	–	1.76	0.983	1.19	2.9	–	–	–	–	–	–	–	4.92	–	–	–	–
CC(C)(C)OC(=O)NCCCCCCCCCn1c2c(c3ccccc3c1=O)C(=O)c1ccccc1-2	–	> 100	> 100	> 100	52.8	76.9	> 100	> 100	24.8	> 100	43.5	> 100	49.2	18	> 100	> 100	17.5	> 100	44.9	–
